Reference: patent publication US20230234943A1, “TREX1 INHIBITORS AND USES THEREOF” (Tempest Therapeutics, Inc., priority 2020, published 2023)

Legend:
[1] = target: T1, Human TREX1 enzyme (amino acids 1-242) (Homo sapiens, UniProt Q9NSU2); assay: Human TREX1 enzymatic assay with dsDNA native oligonucleotide (Picogreen fluorescence); format: biochemical; conditions: 2 mM dithiothreitol in assay buffer; 50 nM dsDNA oligonucleotide; 30 min preincubation at 25° C.; read-out: TREX1/Human + DTT IC50 AVG
T1 construct: Human TREX1 enzyme (amino acids 1-242)
T1 sequence (Q9NSU2 1-242): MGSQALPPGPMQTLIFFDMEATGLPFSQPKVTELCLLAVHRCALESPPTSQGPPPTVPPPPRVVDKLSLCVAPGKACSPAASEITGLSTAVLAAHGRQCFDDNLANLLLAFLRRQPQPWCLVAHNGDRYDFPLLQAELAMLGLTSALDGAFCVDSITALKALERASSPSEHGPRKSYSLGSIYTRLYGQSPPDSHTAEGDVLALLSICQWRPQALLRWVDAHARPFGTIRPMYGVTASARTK
In short: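 Remaining dsDNA quantified by Picogreen fluorescence after EDTA quench, with no-enzyme and DMSO wells as controls. Reactions used 50 nM annealed oligonucleotide for 5–15 min at 25 °C, after a 30 min compound–enzyme preincubation (0.8–0.16 nM TREX1; 2% DMSO; pH 7.7 Tris, 5 mM MgCl2).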

Human TREX1 = target: T2, Human TREX1 (Homo sapiens, UniProt Q9NSU2); assay: Gel assay (orthogonal control, IR-680 oligonucleotide strand degradation); format: biochemical; conditions: polyacrylamide gel, top band intensity; different doses of inhibitor
T2 sequence (Q9NSU2 1-314): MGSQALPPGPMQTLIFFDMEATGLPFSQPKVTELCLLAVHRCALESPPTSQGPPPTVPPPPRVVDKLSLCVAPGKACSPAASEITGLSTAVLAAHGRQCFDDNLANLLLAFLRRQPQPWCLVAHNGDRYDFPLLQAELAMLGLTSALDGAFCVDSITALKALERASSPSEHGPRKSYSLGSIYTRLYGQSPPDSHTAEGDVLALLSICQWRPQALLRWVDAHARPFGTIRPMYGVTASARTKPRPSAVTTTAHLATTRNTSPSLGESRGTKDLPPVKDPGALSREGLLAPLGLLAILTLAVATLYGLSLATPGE
Procedure: A gel assay was conducted as an orthogonal control to confirm observations of TREX1 inhibitors determined with the fluorescence-based assay. Briefly, compounds were diluted in DMSO at 50× the final concentration. Human TREX1 was diluted to […] (2×concentration) in assay buffer (assay buffer: 20 mM Tris pH 7.7 (Life T-echnologies), 5 mM MgCl2 (Sigma), 0.01% HSA (Sigma), 0.01% Brij-35 (ThermoFisher), 2 mM DTT (Sigma)). Oligonucleotide strand (IR-680-5′[…]-3′) (Custom probe made by Trilink) was diluted in the same assay buffer to a working concentration of 25 nM (final concentration of 12.5 nM). Example 107 was added to […] human TREX1 enzyme in clear 96 well plates. The plate was then incubated at 25° C. for 30 minutes. Twenty five nM oligonucleotide strand was added to the plate, to a final concentration of 30 pM TREX1, 12.5 nM oligo, 1× compound and incubated at 25° C. Fifteen minutes later, the reaction was stopped by removing 10 μl of the reaction and adding it to 20 μl of a solution of 50 mM EDTA/1.5× loading dye buffer (6× Orange DNA loading dye; ThermoFisher) in a 96 well PCR plate. […] The top band was quantified using Image Studio (Licor). […] The top band intensity was measured using the Odyssey scanner (Li-Cor) and ImageStudio software (Li-Cor) and FIG. 1B: Graph representing the percent of top band intensity degradation as a measure of human TREX1 activity. […]

| Compound | IC50 [1] | melting point | inhibition of human TREX1 / DNA degradation in gel assay (FIGS. 1A and 1B) (Human TREX1) |
| --- | --- | --- | --- |
| COc1cc(-c2nc3ccc(N4CCN(S(C)(=O)=O)CC4)cc3n2C2CCOC2)cc(O)c1O (stereo not shown) [Example 107, 3-methoxy-5-(6-(4-(methylsulfonyl)piperazin-1-yl)-1-(tetrahydrofuran-3-yl)-1H-benzo[d]imidazol-2-yl)benzene-1,2-diol] | 1 to 10 µM |  | inhibits human TREX1 and prevents DNA degradation |
| COc1cc(-c2nc3ccccc3n2C2CCC2)c(C2CC2)c(O)c1O [Example 174, 4-(1-cyclobutyl-1H-benzo[d]imidazol-2-yl)-3-cyclopropyl-6-methoxybenzene-1,2-diol] | 10 to 100 µM | 209 °C |  |
| COc1ccc2[nH]c(-c3cc(OC)c(O)c(O)c3C)nc2c1 [Example 175, 6-methoxy-4-(5-methoxy-1H-benzo[d]imidazol-2-yl)-3-methylbenzene-1,2-diol] | 10 to 100 µM | 249.1 °C |  |
| COc1cc(-c2nc3ccc(S(C)(=O)=O)cc3n2C2(C)COC2)c(F)c(O)c1O [Example 178, 3-fluoro-4-[6-methanesulfonyl-1-(3-methyloxetan-3-yl)-1H-1,3-benzodiazol-2-yl]-6-methoxybenzene-1,2-diol] | 1 to 10 µM | 257.6 °C |  |
| COc1cc(-c2nc3ccc(C#N)cc3n2C2(C)COC2)c(F)c(O)c1O [Example 179, 2-(2-fluoro-3,4-dihydroxy-5-methoxyphenyl)-1-(3-methyloxetan-3-yl)-1H-1,3-benzodiazole-6-carbonitrile] | 0.1 to 1 µM | 209 °C |  |
| COc1cc(-c2nc3ccc(C(N)=O)cc3n2C2(C)COC2)c(F)c(O)c1O [Example 180, 2-(2-fluoro-3,4-dihydroxy-5-methoxyphenyl)-1-(3-methyloxetan-3-yl)-1H-1,3-benzodiazole-6-carboxamide] | ≤ 0.1 µM | 170.4 °C |  |
| COc1cc(-c2nc3ccccc3n2C2(C)COC2)c(C(F)(F)F)c(O)c1O [Example 315, 6-methoxy-4-(1-(3-methyloxetan-3-yl)-1H-benzo[d]imidazol-2-yl)-3-(trifluoromethyl)benzene-1,2-diol] | 10 to 100 µM |  |  |
| CNc1ccc2c(c1)nc(-c1cc(OC)c(O)c(O)c1F)n2C1(C)COC1 [Example 316, 3-fluoro-6-methoxy-4-(5-(methylamino)-1-(3-methyloxetan-3-yl)-1H-benzo[d]imidazol-2-yl)benzene-1,2-diol] | 0.1 to 1 µM |  |  |
| CNc1ccc2nc(-c3cc(OC)c(O)c(O)c3F)n(C3(C)COC3)c2c1 [Example 317, 3-fluoro-6-methoxy-4-(6-(methylamino)-1-(3-methyloxetan-3-yl)-1H-benzo[d]imidazol-2-yl)benzene-1,2-diol] | 0.1 to 1 µM |  |  |
| COc1cc(-c2nc3ccc(Nc4ccccc4)cc3n2C2(C)COC2)c(F)c(O)c1O [Example 318, 3-fluoro-6-methoxy-4-(1-(3-methyloxetan-3-yl)-6-(phenylamino)-1H-benzo[d]imidazol-2-yl)benzene-1,2-diol] | 0.1 to 1 µM |  |  |
| COc1cc(-c2nc3cc(NCCO)ccc3[nH]2)cc(O)c1O [Example 319, 5-(5-((2-hydroxyethyl)amino)-1H-benzo[d]imidazol-2-yl)-3-methoxybenzene-1,2-diol] | 1 to 10 µM |  |  |
| COc1cc(-c2nc3ccccc3n2C2CN(C)C2)c(C)c(O)c1O [Example 320, 6-methoxy-3-methyl-4-(1-(1-methylazetidin-3-yl)-1H-benzo[d]imidazol-2-yl)benzene-1,2-diol] | > 100 µM |  |  |

Now from value to compound, other results behind:

| IC50 [1] | melting point | Compound | inhibition of human TREX1 / DNA degradation in gel assay (FIGS. 1A and 1B) (Human TREX1) |
| --- | --- | --- | --- |
| > 100 µM |  | COc1cc(-c2nc3ccccc3n2C2CN(C(C)=O)C2)c(C)c(O)c1O [Example 321, 1-(3-(2-(3,4-dihydroxy-5-methoxy-2-methylphenyl)-1H-benzo[d]imidazol-1-yl)azetidin-1-yl)ethan-1-one] |  |
| 10 to 100 µM |  | COc1cc(-c2nc3ccccc3n2C2CN(S(C)(=O)=O)C2)c(C)c(O)c1O [Example 322] |  |
| 1 to 10 µM |  | COc1c(O)c(O)c(C)c(-c2nc3ccccc3n2C2CCC2)c1F [Example 323, 4-(1-cyclobutyl-1H-benzo[d]imidazol-2-yl)-5-fluoro-6-methoxy-3-methylbenzene-1,2-diol] |  |
| 1 to 10 µM |  | COc1cc(-c2nc3ccccc3n2C2CC2)c(C)c(O)c1O [Example 324, 4-(1-cyclopropyl-1H-benzo[d]imidazol-2-yl)-6-methoxy-3-methylbenzene-1,2-diol] |  |
| 10 to 100 µM |  | CNS(=O)(=O)c1ccc2nc(-c3cc(OC)c(O)c(O)c3F)n(C3(C)COC3)c2c1 [Example 325, 2-(2-fluoro-3,4-dihydroxy-5-methoxyphenyl)-N-methyl-1-(3-methyloxetan-3-yl)-1H-benzo[d]imidazole-6-sulfonamide] |  |
| 1 to 10 µM |  | COc1cc(-c2nc3ncccc3n2C2(C)COC2)c(F)c(O)c1O [Example 326, 3-fluoro-6-methoxy-4-(1-(3-methyloxetan-3-yl)-1H-imidazo[4,5-b]pyridin-2-yl)benzene-1,2-diol] |  |
| 1 to 10 µM |  | COc1cc(-c2nc3ccccc3n2C2CCC2)c(F)c(O)c1O [Example 327, 4-(1-cyclobutyl-1H-benzo[d]imidazol-2-yl)-3-fluoro-6-methoxybenzene-1,2-diol] |  |
| ≤ 0.1 µM |  | COc1cc(-c2nc3ccccc3n2C23CC(C2)C3)c(F)c(O)c1O [Example 328, 4-(1-(bicyclo[1.1.1]pentan-1-yl)-1H-benzo[d]imidazol-2-yl)-3-fluoro-6-methoxybenzene-1,2-diol] |  |
| 0.1 to 1 µM |  | COc1cc(-c2nc3ccccc3n2C2(C)CC2)c(F)c(O)c1O [Example 329, 3-fluoro-6-methoxy-4-(1-(1-methylcyclopropyl)-1H-benzo[d]imidazol-2-yl)benzene-1,2-diol] |  |
| 0.1 to 1 µM |  | COc1cc(-c2nc3ccccc3n2C(C)(C)C)c(F)c(O)c1O [Example 330, 4-(1-(tert-butyl)-1H-benzo[d]imidazol-2-yl)-3-fluoro-6-methoxybenzene-1,2-diol] |  |
| 1 to 10 µM |  | COc1cc(-c2nc3ccccc3n2-c2ccccc2)c(F)c(O)c1O [Example 331, 3-fluoro-6-methoxy-4-(l-phenyl-1H-1,3-benzodiazol-2-yl)benzene-1,2-diol] |  |
| > 100 µM |  | Oc1cc(-c2nc3ccccc3n2C2CCC2)cc(OC(F)F)c1O [Example 333, 5-(1-cyclobutyl-1H-benzo[d]imidazol-2-yl)-3-(difluoromethoxy)benzene-1,2-diol] |  |
| 0.1 to 1 µM |  | COc1cc(-c2nc3cc(O)ccc3n2C2CCC2)c(C)c(O)c1O [Example 334, 4-(1-cyclobutyl-5-hydroxy-1H-benzo[d]imidazol-2-yl)-6-methoxy-3-methylbenzene-1,2-diol] |  |
